Tests used:
Assay type in all cases: cell-based
iPSC line (2.042) = assay: Neural differentiation of iPSC line 2.042, neuron purity by βIII-tubulin/Nestin double stains; conditions: only one of 10 μM SB-431542 or 1 μM dorsomorphin in medium on Days −2, −1, 0 and 1; Day 28 (FIG. 3C)
iPS cell line 8004 [1] = assay: Neuron purity of iPS cell line 8004 by TUJ1/Nestin flow cytometry staining; conditions: 10 μM SB-431542 on Days −2, −1, 0, and 1; Day 28
Procedure: (§1) iPS cell line 8004 was differentiated using the procedure of Example 3 with and without 10 μM SB-431542 added to culture medium on Days −2, −1, 0, and 1. On Day 28, neuron purity as determined by TUJ1/Nestin flow cytometry staining was 80% without SB-431542 and 97% with SB-431542. Beginning on Day 30 of the. procedure, cells were fed 90% 1× DMEM-F12/10% FBS every 7 days. Astrocyte outgrowth was first detected on Day 45. On Day 48, cultures were assayed by flow cytometry for astrocyte purity using GFAP as a marker for astrocytes. […] In summary, the methods detailed herein provide for a method to produce cultures of high purity astrocytes in a time efficient manner relative to existing astrocyte differentiation methods.

iPS cell line 8004 [2] = assay: Astrocyte purity of iPS cell line 8004 cultures by flow cytometry using GFAP as marker; conditions: 10 μM SB-431542 on Days −2, −1, 0, and 1; fed 10% FBS from Day 30; Day 48
Procedure: as §1

iPSC line 1729c4 = assay: Neural differentiation of iPSC line 1729c4, purity by flow cytometry with βIII-tubulin/Nestin double stains; conditions: 10 ng/mL FGF8 present on Day −3; Day 27
Excerpt: iPS cells were maintained on Matrigel in TeSR medium (Stem Cell Technologies) and sodium citrate split one passage prior to aggregate formation and grown in T150 flasks, but can be scaled for starting cells in other culture formats. Alternate pluripotent cell culture media (such as E8 media: Chen et al., 2011), containing varying concentrations of TGFβ and/or bFGF, can be used to optimize neural differentiation of different iPS cell lines or clones. Pluripotent cell cultures were then “primed” for differentiation three or four days prior to aggregate formation. […]
On Day 0 of the neuron differentiation process (specifically, aggregate formation), cells are harvested from T150 flasks (up to five flasks at one time) and, after media is aspirated, 12 mL of warm TrypLE is added to each flask and the cells are incubated at 37° C. for 7 minutes. […] The tubes may be combined and cells are counted (CEDEX HiRES cell counter). […] Diluted cell stock is counted (CEDEX HiRES cell counter). […]

Molecule: NC(=O)c1ccc(-c2nc(-c3ccc4c(c3)OCO4)c(-c3ccccn3)[nH]2)cc1 [SB-431542]
- neuron purity by βIII-tubulin/Nestin double stains compared to both inhibitors (iPSC line (2.042)): similarly high neuron purities
- neuron purity by TUJ1/Nestin flow cytometry staining (iPS cell line 8004 [1]): 97%
- GFAP positive cells (astrocyte purity) (iPS cell line 8004 [2]): 56%

B1: FGF8: fibroblast growth factor 8, reported as an endogenous neural inducer (protein, UniProt P55075 23-233, looked up)
Fibroblast growth factor 8: QEGPGRGPALGRELASLFRAGREPQGVSQQHVREQSLVTDQLSRRLIRTYQLYSRTSGKHVQVLANKRINAMAEDGDPFAKLIVETDTFGSRVRVRGAETGLYICMNKKGKLIAKSNGKGKDCVFTEIVLENNYTALQNAKYEGWYMAFTRKGRPRKGSKTRQHQREVHFMKRLPRGHHTTEQSLRFEFLNYPPFTRSLRGSQRTWAPEPR
- βIII-tubulin/Nestin positive cells (iPSC line 1729c4): 90%

Source: US9487752B2, “Priming of pluripotent stem cells for neural differentiation” (Cellular Dynamics International, Inc., priority 2011, dated 2016)
